Source: PubChem BioAssay AID192 (DTP/NCI, 2004)
Several values for one entry are separate records, joined by “and”; a condition that tells them apart may be missing. Equal values may be shown once. Inconclusive results and toxic doses are left out.

Tested on: BDF1 mice, B16 melanoma ip, median survival T/C
Assay: NCI In Vivo Anticancer Drug Screen. Data for tumor model B16 Melanoma (intraperitoneal) in B6D2F1 (BDF1) mice
Conditions: endpoint: median survival time, higher = longer survival
Protocol: The antitumor activity of compounds was measured in mice bearing transplantable tumors. Survival or tumor size were measured and the results are expressed as the measurement made in the treated group (T) divided by the measurement made in the vehicle treated control group (C). The tumor model used in this assay is B16 Melanoma (intraperitoneal) in B6D2F1 (BDF1) mice

[1] = dose: 12.5 mg/kg/injection, schedule: Q01DX009 (ip), vehicle: saline
[2] = dose: 50.0 mg/kg/injection, schedule: Q01DX009 (ip), vehicle: Klucel (hydroxypropylcellulose) (HPC)
[3] = dose: 100.0 mg/kg/injection, schedule: Q01DX009 (ip), vehicle: Klucel (hydroxypropylcellulose) (HPC)
[4] = dose: 200.0 mg/kg/injection, schedule: Q01DX009 (ip), vehicle: Klucel (hydroxypropylcellulose) (HPC)

## CCCCCCCCCCCCCC(=O)N(C)C
[1]
  T/C: 97 % of control
dose: 25.0 mg/kg/injection, schedule: Q01DX009 (ip), vehicle: saline
  T/C: 97 % of control
dose: 50.0 mg/kg/injection, schedule: Q01DX009 (ip), vehicle: saline with Tween-80
  T/C: 93 % of control

## CCC(C)Sc1nc(N)nc2c1ncn2C1OC(CO)C(O)C1O (centres undefined)
dose: 37.5 mg/kg/injection, schedule: Q01DX009 (ip), vehicle: Klucel (hydroxypropylcellulose) (HPC)
  T/C: 113 % of control
dose: 75.0 mg/kg/injection, schedule: Q01DX009 (ip), vehicle: Klucel (hydroxypropylcellulose) (HPC)
  T/C: 99 % of control
dose: 150.0 mg/kg/injection, schedule: Q01DX009 (ip), vehicle: Klucel (hydroxypropylcellulose) (HPC)
  T/C: 89 % of control

## COc1cccc2c1C(=O)c1c(O)c3c(c(O)c1C2=O)C[C@@](O)(C(=O)COC(=O)Cc1cccc2ccccc12)C[C@@H]3OC1CC(N)C(O)C(C)O1 (some centres undefined)
dose: 0.5 mg/kg/injection, schedule: Q01DX009 (ip), vehicle: saline with Tween-80
  T/C: 169 % of control
dose: 1.0 mg/kg/injection, schedule: Q01DX009 (ip), vehicle: saline with Tween-80
  T/C: 150 % of control and 227 % of control
dose: 2.0 mg/kg/injection, schedule: Q01DX009 (ip), vehicle: saline with Tween-80
  T/C: 169 % of control and 238 % of control
dose: 4.0 mg/kg/injection, schedule: Q01DX009 (ip), vehicle: saline with Tween-80
  T/C: 192 % of control and 284 % of control

## Cc1ccc(NS(=O)(=O)c2ccc([N+](=O)[O-])cc2)cc1
dose: 25.0 mg/kg/injection, schedule: Q04DX003 (ip), vehicle: Klucel (hydroxypropylcellulose) (HPC)
  T/C: 115 % of control
dose: 50.0 mg/kg/injection, schedule: Q04DX003 (ip), vehicle: Klucel (hydroxypropylcellulose) (HPC)
  T/C: 103 % of control
dose: 100.0 mg/kg/injection, schedule: Q04DX003 (ip), vehicle: Klucel (hydroxypropylcellulose) (HPC)
  T/C: 108 % of control
dose: 200.0 mg/kg/injection, schedule: Q04DX003 (ip), vehicle: Klucel (hydroxypropylcellulose) (HPC)
  T/C: 97 % of control
dose: 400.0 mg/kg/injection, schedule: Q04DX003 (ip), vehicle: Klucel (hydroxypropylcellulose) (HPC)
  T/C: 115 % of control

## C[C@]12C=CC(=O)C=C1CC[C@@H]1[C@@H]2C(=O)C[C@@]2(C)[C@H]1CC[C@]2(O)C(=O)CO
dose: 12.5 mg/kg/injection, schedule: Q01DX009 (sc), vehicle: steriod suspending solution
  T/C: 102 % of control
dose: 25.0 mg/kg/injection, schedule: Q01DX009 (sc), vehicle: steriod suspending solution
  T/C: 102 % of control
dose: 50.0 mg/kg/injection, schedule: Q01DX009 (sc), vehicle: steriod suspending solution
  T/C: 89 % of control and 102 % of control and 110 % of control
dose: 50.0 mg/kg/injection, schedule: Q01DX017 (sc), vehicle: steriod suspending solution
  T/C: 104 % of control
dose: 50.0 mg/kg/injection, schedule: Q## X009 (sc), vehicle: steriod suspending solution
  T/C: 102 % of control
dose: 100.0 mg/kg/injection, schedule: Q01DX001 (sc), vehicle: steriod suspending solution
  T/C: 100 % of control
dose: 100.0 mg/kg/injection, schedule: Q01DX009 (sc), vehicle: steriod suspending solution
  T/C: 109 % of control
dose: 100.0 mg/kg/injection, schedule: Q01DX017 (sc), vehicle: steriod suspending solution
  T/C: 97 % of control
dose: 100.0 mg/kg/injection, schedule: Q04DX003 (sc), vehicle: steriod suspending solution
  T/C: 109 % of control
dose: 100.0 mg/kg/injection, schedule: Q04DX005 (sc), vehicle: steriod suspending solution
  T/C: 97 % of control
dose: 100.0 mg/kg/injection, schedule: Q## X009 (sc), vehicle: steriod suspending solution
  T/C: 118 % of control
dose: 200.0 mg/kg/injection, schedule: Q01DX001 (sc), vehicle: steriod suspending solution
  T/C: 95 % of control
dose: 200.0 mg/kg/injection, schedule: Q01DX009 (sc), vehicle: steriod suspending solution
  T/C: 123 % of control
dose: 200.0 mg/kg/injection, schedule: Q04DX003 (sc), vehicle: steriod suspending solution
  T/C: 104 % of control
dose: 200.0 mg/kg/injection, schedule: Q04DX005 (sc), vehicle: steriod suspending solution
  T/C: 106 % of control
dose: 200.0 mg/kg/injection, schedule: Q## X009 (sc), vehicle: steriod suspending solution
  T/C: 106 % of control
dose: 400.0 mg/kg/injection, schedule: Q01DX001 (sc), vehicle: steriod suspending solution
  T/C: 95 % of control
dose: 400.0 mg/kg/injection, schedule: Q04DX003 (sc), vehicle: steriod suspending solution
  T/C: 106 % of control
dose: 400.0 mg/kg/injection, schedule: Q04DX005 (sc), vehicle: steriod suspending solution
  T/C: 109 % of control
dose: 400.0 mg/kg/injection, schedule: Q## X009 (sc), vehicle: steriod suspending solution
  T/C: 106 % of control
dose: 800.0 mg/kg/injection, schedule: Q01DX001 (sc), vehicle: steriod suspending solution
  T/C: 93 % of control

## CCCCC[C@H](O)/C=C/[C@H]1[C@H](O)CC(=O)[C@@H]1C/C=C\CCCC(=O)O
dose: 0.75 mg/kg/injection, schedule: Q04DX002 (ip), vehicle: Klucel (hydroxypropylcellulose) (HPC)
  T/C: 108 % of control
dose: 1.5 mg/kg/injection, schedule: Q04DX002 (ip), vehicle: Klucel (hydroxypropylcellulose) (HPC)
  T/C: 97 % of control
dose: 3.0 mg/kg/injection, schedule: Q04DX002 (ip), vehicle: Klucel (hydroxypropylcellulose) (HPC)
  T/C: 96 % of control
dose: 6.0 mg/kg/injection, schedule: Q04DX002 (ip), vehicle: Klucel (hydroxypropylcellulose) (HPC)
  T/C: 92 % of control
dose: 12.5 mg/kg/injection, schedule: Q04DX002 (ip), vehicle: other
  T/C: 96 % of control
dose: 24.0 mg/kg/injection, schedule: Q04DX002 (ip), vehicle: Klucel (hydroxypropylcellulose) (HPC)
  T/C: 103 % of control
dose: 25.0 mg/kg/injection, schedule: Q04DX002 (ip), vehicle: other
  T/C: 91 % of control
dose: 100.0 mg/kg/injection, schedule: Q04DX002 (ip), vehicle: other
  T/C: 96 % of control
dose: 200.0 mg/kg/injection, schedule: Q04DX002 (ip), vehicle: other
  T/C: 96 % of control

## Cc1ccccc1N=Cc1ccc2c(c1)OCO2
[2]
  T/C: 102 % of control
[3]
  T/C: 95 % of control
[4]
  T/C: 100 % of control

## CC[C@]12CN3CCc4c([nH]c5ccccc45)[C@@](C(=O)OC)(c4cc5c(cc4OC)N(C=O)[C@H]4[C@@](O)(C(=O)OC)[C@H](OC(C)=O)[C@]6(CC)C=CCN7CC[C@]54[C@@H]76)C[C@H](C3)[C@H]1O2
dose: 4.0 mg/kg/injection, schedule: Q01DX011 (ip), vehicle: saline
  T/C: 159 % of control

## [N-]=[N+]=C1C(=O)NN=C1c1ccccc1
[3]
  T/C: 105 % of control

## O=Cc1ccc(C=O)c(Cl)c1
[2]
  T/C: 97 % of control
[3]
  T/C: 109 % of control
[4]
  T/C: 107 % of control
dose: 400.0 mg/kg/injection, schedule: Q01DX009 (ip), vehicle: Klucel (hydroxypropylcellulose) (HPC)
  T/C: 104 % of control

## [Cl][Pd]([Cl])([Cl])[Cl]
dose: 6.25 mg/kg/injection, schedule: Q01DX009 (ip), vehicle: saline
  T/C: 103 % of control
[1]
  T/C: 92 % of control

## CC(=O)CC(=O)N1CCN(C(=O)CC(C)=O)CC1
dose: 100.0 mg/kg/injection, schedule: Q01DX009 (ip), vehicle: saline
  T/C: 87 % of control
dose: 200.0 mg/kg/injection, schedule: Q01DX009 (ip), vehicle: saline
  T/C: 87 % of control
dose: 400.0 mg/kg/injection, schedule: Q01DX009 (ip), vehicle: saline
  T/C: 91 % of control
